The subject of one series is herpes virus. Particulars: literature; cited from earlier work.
The subject of series [1] is mouse ascites tumor cells. Description: Mouse ascites tumor survival experiment. In kind it is in vivo. As to conditions: 80 mg/kg daily for ten days. The method, then: (§1) Experiments with mice have also been carried out. LD50 intraperitoneally is of the order 1000 mg/kg and about 100 mg/kg intravenously. […] were inocculated with 5 millions mouse ascites tumor cells intraperitoneally. 80 mg/kg of B219 were given daily for ten days. 2 mice died 22 days after treatment, 8 mice survived the whole test period (3 months). All controls were then dead. In two experiments with ascites lymphoma cells in mice a survival time of 50.9 days was obtained in the first experiment and 45.6 days in the second. The survival time for the controls , was 16.2 and 16.1 days respectively.

The test system of the next series is ascites lymphoma cells. Description: Ascites lymphoma survival experiments in mice. In kind it is in vivo. The method, then:
as §1

Series [2] can be described thus: Acute toxicity (LD50) in mice. As to conditions: for LD50: mouse, in vivo. The class given is in vivo. The method, then: as §1
The test system of series [3] is Herpes simplex type 1 and 2. Description: Herpes simplex virus tissue culture test (human amnion AV3-cells), cytopathogenic effect. In kind it is cell-based, Herpes simplex virus type 1 and 2. As to conditions: for EC50: Human alphaherpesvirus 1, Table 1, read-out: Herpes Simplex tissue culture OL50 (concentration for 50% survival); for Herpes Simplex tissue culture OL50 (concentration for 50% survival): Table 1. The method, then: (§2) The virus strains were obtained from the National Bacteriological Laboratory, Stockholm. Herpes simplex type 1 and 2 were passaged intracerebrally in mice. For mouse experiments male mice 2-3 weeks old were used. Intracerebral infection was carried out by introducing the syringe 3 mm above the eye to a depth of approximately 3 mm. 0.03 ml virus suspension was injected above one eye and the substance above the other. Control groups obtained on one hand injection with physiological saline and on the other hand virus suspension.
Tissue culture experiments took place with human amnion AV3-cells. The cells were grown in glass-tubes (12×100 mm) in Eagles medium containing Earles salt solution and 10% of calf-serum. Tubes with a full-grown homogenous layer of cells were infected with virus (0.15 ml) and the virus was allowed to adsorb to cells for 1 hour at 37° C. The tubes were treated with substance dissolved in medium 24 hours and 0 hour before infection. Medium containing test-substance was changed every second day throughout the experiment. In each test a series of concentrations of the test-substance was investigated simultaneously so that about 50% reduction in cytopatogenic effect could be established (ED50).
In general terms: Protection from cytopathic effect is a common read-out in antiviral testing.

Another series has as its system Raji cells. Description: Growth/killing of Burkitt lymphoma Raji-cells. In kind it is cell-based. As to conditions: FIGS. 1 and 3. The protocol:
(§3) Burkitt lymphoma cells were obtained from professor Georg Klein, Karolinska Institutet. HeHrl-cells contain Epstein-Barr virus antigen on the surface of the cells while Raji cells contain the same antigen in the nucleus. The cells were grown in RPMI 1640 medium in the presence of 15% of fetal calf-serum, 2mM glutamine, 200 mg/1 penicillin and 200 mg/1 of streptomycine. L 1210 cells (mouse leukemia) were obtained from Dr. Miklos Degre, Rikshospitalet, Oslo. These cells were grown in RPMI 1640 medium with 10% horse serum.

In series [4] the test system is herpes simplex virus type 1. Description: Virus inactivation after incubation with B196, infectivity by intracerebral injection in mice (FIG. 5). Particulars: 75 and 150 μg/ml, 4° C. The class given is in vivo, herpes simplex virus type 1 in mice. The protocol: In the experiments shown in FIG. 5 two concentrations of B-196 (75 and 150 μg/ml) were incubated for different times at 4° C. with herpes simplex virus type 1 and the infectivity of the mixtures were determined by intracerebral injection in mice Control virus was incubated at 4° C. for the same period of time. No survivors were registered in these groups.

A further series relates to osteogenic sarcoma cells. Description: Growth inhibition of osteogenic sarcoma cells. In kind it is cell-based. Particulars: after 6 days test with 1 mg/1. The protocol: (§4) Also osteogenic sarcoma cells and giant tumor cells (strain T4) were inhibited to 90% in their growth after 6 days test with 1 mg/1.
Series [5] deals with giant tumor cells (strain T4). Description: Growth inhibition of giant tumor cells (strain T4). In kind it is cell-based. Particulars: after 6 days test with 1 mg/1. The protocol: as §4
Another series concerns HeHrl-cells. Nature of the series: Growth/killing of Burkitt lymphoma HeHrl-cells (HeHr). As to conditions: FIGS. 1 and 2. In kind it is cell-based. The protocol:
as §3

For series [6], the system named is herpes simplex virus type 1. Description: Virus mixed with B196, with or without dialysis, injected intracerebrally into mice (FIG. 4). The class given is in vivo, herpes simplex virus type 1 in mice. The method, then:
as §2
In the experiments shown in FIG. 4 various concentrations of B-196 were mixed with herpes simplex virus type 1 and injected intracerebrally into mice immediately at or after dialysis, at 4° C. over night. No survivors were recorded in control groups.

Results on nine compounds are retold here after patent US4990510A, “Substituted indoloquinoxalines” (Leif Lundblad, priority 1986, dated 1991).

The term LD50 denotes the dose at which mortality reaches 50%. Read a high LD50 as lower toxicity.

Values after ≈ are worked out from the molar mass of the structure shown. Counter-ions that a name gives are not always drawn.

`O=C(O)P(=O)(O)O` [phosphonoformic acid]: the “activity against herpes virus” value in the series on herpes virus is listed as “active against herpes virus”.

In the case of `Cc1cc2nc3c4cc(Br)ccc4n(CCN(C)C)c3nc2cc1C` [Example B219], in [1] (5 millions ascites tumor cells intraperitoneally), the “mice died 22 days after treatment” value was 2 mice. Further, the “mice survived the whole test period” value in series [1] (3 months, all controls dead) worked out at 8 mice. Besides, the “survival time, first experiment” value with ascites lymphoma cells (first experiment, controls 16.2 days) is reported as 50.9 days. In addition, in the series on ascites lymphoma cells (second experiment, controls 16.1 days), the “survival time, second experiment” value turned out to be 45.6 days.

For `Cc1cc2nc3c4cc(Br)ccc4n(CCN(C)C)c3nc2cc1C` [Example 6, 2,3-dimethyl-9-bromo-6-(N,N-dimethylaminoethyl)-6H-indolo-(2,3-b)quinoxalin], the LD50 in [2] (Table 1) is more than 250 mg/kg. Moreover, the EC50 in series [3] is less than 0.5 µg/mL.

Consider `O=C(O)CP(=O)(O)O` [phosphonoacetic acid], for which, in the series on herpes virus, the “activity against herpes virus” value is listed as “active against herpes virus”.

Turning to `Cc1ccc2c(c1)c1nc3ccccc3nc1n2CCN(C)C` [Example 10, 9-methyl-6-(N,N-dimethylaminoethyl)-6H-indolo(2,3-b)-quinoxaline-ICl], the LD50 mouse in series [2] (Table 1) was found to be 220 mg/kg. Moreover, in [3], the “Herpes Simplex tissue culture OL50 (concentration for 50% survival)” value came out at 0.5 µg/mL.

Regarding `CN(C)CCn1c2ccc(Br)cc2c2nc3ccccc3nc21` [Example B196, 9-bromo-6(N,N-dimethylaminoethyl)-6H-indolo(2,3-b)-quinoxaline . HCl], in the series on Raji cells, the “sensitivity / killing of Raji-cells” value was “rapidly killed”. For the same compound, in series [4], the “inactivation of HSV1-virus vs. time” value is on record as “virus slowly is inactivated”. In addition, in the series on osteogenic sarcoma cells, the “inhibition of growth, osteogenic sarcoma cells” value is 90%. Further, the “inhibition of growth, giant tumor cells (strain T4)” value in [5] was 90%. In addition, in the series with HeHrl-cells, the “sensitivity / killing of HeHrl-cells” value is listed as “rapidly killed”. This compound displayed a survival rate in [6] (virus mixed with B196 before injection, increases from 0) of 100%. Also, in [6] (virus-substance mixture subjected to dialysis before injection), the “effect on survival rate after dialysis” value was “almost equally pronounced”.

Regarding `Cc1ccc2c(c1)c1nc3ccccc3nc1n2CCN(C)C` [Example 8], the LD50 mouse in series [2] (Table 1) is listed as more than 200 mg/kg. Further, the “Herpes Simplex tissue culture OL50 (concentration for 50% survival)” value in series [3] is 1 µg/mL.

On to `CN(C)CCn1c2ccc(Cl)cc2c2nc3ccccc3nc21.Cl` [Example 5, 9-chloro-6-(N,N-dimethylaminoethyl)-6H-indolo(2,3-b)-quinoxaline-HCl], for which, in [2] (Table 1, listed as 9), the LD50 mouse is reported as more than 250 mg/kg. In [2] (Table 1), this compound displayed an LD50 of 180 mg/kg. Also, the EC50 in [3] amounted to 1 µg/mL.

For `Cc1ccc2c(c1)c1nc3ccccc3nc1n2CCN(C)C` [Example 4, 9-methyl-6-(N,N-dimethylaminoethyl)-6H-indolo(2,3-b)quinoxaline], the LD50 in series [2] (Table 1) is more than 200 mg/kg. Further, the EC50 in series [3] was determined as 1 µg/mL (≈ 3.29 µM).
